Counter-ions that a name gives are not always drawn.
Assay: vasodilatory and cardiovascular actions in femtomol dosages, with and without blockers of the sympathetic nervous system
Format: in vivo
Settings: blocker of the sympathetic nervous system
Description: In femtomol dosages, the peptide-amides according to the invention have a vasodilatory action and result in a reduction of the blood pressure and an increase in the heart rate and in the contractility of the myocardium. The actions are not affected by blockers of the sympathetic nervous system, for example metoprolol [1-isopropylamino-3-(4-{2-methoxyethyl}phenoxy)-propan-2-ol] and Trandate® (labetalol hydrochloride), whereas the action of noradrenalin and of adrenalin in serum is suppressed by those substances.

In the case of COCCc1ccc(OCC(O)CNC(C)C)cc1 (centres unmarked) [metoprolol, 1-isopropylamino-3-(4-{2-methoxyethyl}phenoxy)-propan-2-ol], the “action of noradrenalin and of adrenalin in serum” value is reported as “suppressed”.

With CC(CCc1ccccc1)NCC(O)c1ccc(O)c(C(N)=O)c1 (centres unmarked) [Trandate, labetalol hydrochloride] the “action of noradrenalin and of adrenalin in serum” value was “suppressed”.

Source: patent publication US4720483A, “Oligopeptides and intermediates and processes for their manufacture” (Ciba-Geigy Corporation, priority 1985, dated 1988)
